This test deals with phosphorylated active hERK2 enzyme (Homo sapiens (Human), UniProt P28482). To be noted: read-out: ERK2 IC50; IMAP-FP assay; 0.5 nM hERK2, 30 μM ATP; 10 point titration, 3 μM starting concentration.

For 33 molecules, IC50 results are on record in patent publication US9884048B2, “ERK inhibitors” (Merck Sharp & Dohme Corp., priority 2014, dated 2018).

Chain of phosphorylated active hERK2 enzyme (P28482 whole entry): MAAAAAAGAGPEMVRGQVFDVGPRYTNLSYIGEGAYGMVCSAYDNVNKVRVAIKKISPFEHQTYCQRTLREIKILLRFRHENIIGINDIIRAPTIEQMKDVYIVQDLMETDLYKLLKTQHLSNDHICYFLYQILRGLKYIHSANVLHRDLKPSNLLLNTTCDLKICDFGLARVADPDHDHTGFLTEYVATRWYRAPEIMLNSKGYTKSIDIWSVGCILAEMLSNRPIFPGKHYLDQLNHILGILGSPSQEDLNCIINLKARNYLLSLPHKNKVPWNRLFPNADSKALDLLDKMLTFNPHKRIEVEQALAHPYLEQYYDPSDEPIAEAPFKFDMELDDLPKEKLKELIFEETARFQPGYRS
Description: Active Human ERK2 (hERK2) Activity Assay:
Activated ERK2 activity was determined in an IMAP-FP assay (Molecular Devices). […] The final reaction in each well of 25 μL consists of 0.5 nM hERK2, 900 nM unlabeled peptide, 80 nM labeled-peptide, and 30 μM ATP. Phosphorylation reactions were allowed to proceed for 60 minutes and were immediately quenched by the addition of 60 μL IMAP detection beads (1:1000 dilutions) in IMAP binding buffer (Molecular Devices) with 24 mM NaCl. Plates were read on EnVision reader after 60 minutes binding equilibration using Fluorescence Polarization protocol (Perkin Elmer).

Turning to `Cc1cc(-n2ncc3cc(NC(=O)NCc4c(C)nn(C)c4C)ncc32)ccn1` [Example 116, 1-[1-(2-methylpyridin-4-yl)-1H-pyrazolo[3,4-c]pyridin-5-yl]-3-[(1,3,5-trimethyl-1H-pyrazol-4-yl)methyl]urea], the IC50 is 27.6 nM.

Consider `Cc1cc(-n2ncc3cc(NC(=O)NCCc4c(C)noc4C)ncc32)ccn1` [Example 117, 1-[2-(3,5-dimethylisoxazol-4-yl)ethyl]-3-[1-(2-methylpyridin-4-yl)-1H-pyrazolo[3,4-c]pyridin-5-yl)urea], for which the IC50 amounted to 16.4 nM. As to `Cc1cc(-n2ncc3cc(NC(=O)NCc4nonc4C)ncc32)ccn1` [Example 118, 1-[(4-methyl-1,2,5-oxadiazol-3-yl)methyl]-3-[1-(2-methylpyridin-4-yl)-1H-pyrazolo[3,4-c]pyridin-5-yl]urea], the IC50 was 5.38 nM. As for `Cc1cc(-n2ncc3cc(NC(=O)NCc4cc(C)nn4C)ncc32)ccn1` [Example 119, 1-[(1,3-dimethyl-1H-pyrazol-5-yl)methyl]-3-[1-(2-methylpyridin-4-yl)-1H-pyrazolo[3,4-c]pyridin-5-yl)urea], the half-inhibitory concentration (IC50) is 96.6 nM. With `Cc1cc(-n2ncc3cc(NC(=O)NCC(C)O)ncc32)ccn1` (stereo not drawn) [Example 120, 1-(2-hydroxypropyl)-3-[1-(2-methylpyridin-4-yl)-1H-pyrazolo[3,4-c]pyridin-5-yl)urea] the figure was 108 nM; with `Cc1cc(-n2ncc3cc(NC(=O)NC4(C#N)CC4)ncc32)ccn1` [Example 121, 1-(1-cyanocyclopropyl)-3-[1-(2-methylpyridin-4-yl)-1H-pyrazolo[3,4-c]pyridin-5-yl]urea], 1810 nM; with `Cc1cc(-n2ncc3cc(NC(=O)NC(C)(C)c4ccccc4)ncc32)ccn1` [Example 122, 1-(1-methyl-1-phenylethyl)-3-[1-(2-methylpyridin-4-yl)-1H-pyrazolo[3,4-c]pyridin-5-yl]urea], 56.8 nM. The value for `Cc1cc(-n2ncc3cc(NC(=O)NC(C)c4csc(C)n4)ncc32)ccn1` (stereo not drawn) [Example 123, 1-[1-(2-methylpyridin-4-yl)-1H-pyrazolo[3,4-c]pyridin-5-yl]-3-[1-(2-methyl-1,3-thiazol-4-yl)ethyl]urea] was 24.8 nM; that for `Cc1cc(-n2ncc3cc(NC(=O)N[C@@H]4CN(C)C[C@H]4c4ccc(C)s4)ncc32)ccn1` [Example 124, 1-[(3S,4R)-1-methyl-4-(5-methylthiophen-2-yl)pyrrolidin-3-yl]-3-[1-(2-methylpyridin-4-yl)-1H-pyrazolo[3,4-c]pyridin-5-yl)urea] was 1.01 nM; that for `Cc1cc(-n2ncc3cc(NC(=O)NCc4csc5ccccc45)ncc32)ccn1` [Example 125, 1-(1-benzothiophen-3-ylmethyl)-3-[1-(2-methylpyridin-4-yl)-1H-pyrazolo[3,4-c]pyridin-5-yl)urea] was 84.5 nM. Turning to `Cc1cc(-n2ncc3cc(NC(=O)N[C@@H]4CN(C)C[C@H]4c4nc(C)cs4)ncc32)ccn1` [Example 126, 1-[(3S,4R)-1-methyl-4-(4-methyl-1,3-thiazol-2-yl)pyrrolidin-3-yl]-3-[1-(2-methylpyridin-4-yl)-1H-pyrazolo[3,4-c]pyridin-5-yl)urea], the IC50 was 15.8 nM.

Regarding `Cc1cc(-n2ncc3cc(NC(=O)N[C@H](CN4CCOCC4)c4ccccc4)ncc32)ccn1` [Example 127, 1-[1-(2-methylpyridin-4-yl)-1H-pyrazolo[3,4-c]pyridin-5-yl]-3-[(1S)-2-morpholin-4-yl-1-phenylethyl]urea], the half-inhibitory concentration (IC50) turned out to be 152 nM. In the case of `Cc1cc(-n2ncc3cc(NC(=O)NC(C)c4csc(C)n4)ncc32)ccn1` (stereo not drawn) [Example 128, 1-[1-(2-methylpyridin-4-yl)-1H-pyrazolo[3,4-c]pyridin-5-yl]-3-[1-(2-methyl-1,3-thiazol-4-yl)ethyl]urea], the IC50 stood at 2030 nM. With `CCOC[C@@H](NC(=O)Nc1cc2cnn(-c3ccnc(C)c3)c2cn1)c1ccccc1` [Example 129, 1-[(1S)-2-ethoxy-1-phenylethyl]-3-[1-(2-methylpyridin-4-yl)-1H-pyrazolo[3,4-c]pyridin-5-yl)urea], the half-maximal inhibitory concentration (IC50) was 1.09 nM. Regarding `Cc1cc(-n2ncc3cc(NC(=O)N[C@H](CN(C)C)c4ccccc4)ncc32)ccn1` [Example 130, 1-[(1S)-2-(dimethylamino)-1-phenylethyl]-3-[1-(2-methylpyridin-4-yl)-1H-pyrazolo[3,4-c]pyridin-5-yl)urea], the IC50 was 123 nM.

Consider `Cc1cc(-n2ncc3cc(NC(=O)NC(C)c4csc(C)n4)ncc32)ccn1` (stereo not drawn) [Example 131, 1-[1-(2-methylpyridin-4-yl)-1H-pyrazolo[3,4-c]pyridin-5-yl]-3-[1-(2-methyl-1,3-thiazol-4-yl)ethyl]urea], for which the IC50 was found to be 10.9 nM. Regarding `CO[C@H]1CNC[C@@H]1NC(=O)Nc1cc2cnn(-c3ccnc(C)c3)c2cn1` [Example 132, 1-[(3S,4S)-4-methoxypyrrolidin-3-yl]-3-[1-(2-methylpyridin-4-yl)-1H-pyrazolo[3,4-c]pyridin-5-yl]urea], the IC50 was determined as 168 nM.

`Cc1cc(-n2ncc3cc(NC(=O)NC4CCNC4)ncc32)ccn1` (stereo not drawn) [Example 133, 1-[1-(2-methylpyridin-4-yl)-1H-pyrazolo[3,4-c]pyridin-5-yl]-3-pyrrolidin-3-ylurea]: the IC50 was found to be 456 nM. For `Cc1cc(-n2ncc3cc(NC(=O)N[C@H](Cn4ccnc4)c4ccccc4)ncc32)ccn1` [Example 134, 1-[(1S)-2-(1H-imidazol-1-yl)-1-phenylethyl]-3-[1-(2-methylpyridin-4-yl)-1H-pyrazolo[3,4-c]pyridin-5-yl]urea], the IC50 amounted to 475 nM. For the molecule `Cc1cc(-n2ncc3cc(NC(=O)N[C@H](COC(C)C)c4ccccc4)ncc32)ccn1` [Example 135, 1-[(1S)-2-(1-methylethoxy)-1-phenylethyl]-3-[1-(2-methylpyridin-4-yl)-1H-pyrazolo[3,4-c]pyridin-5-yl]urea], the IC50 was 0.786 nM.

In the case of `COCCOC[C@@H](NC(=O)Nc1cc2cnn(-c3ccnc(C)c3)c2cn1)c1ccccc1` [Example 136, 1-[(1S)-2-(2-methoxyethoxy)-1-phenylethyl]-3-[1-(2-methylpyridin-4-yl)-1H-pyrazolo[3,4-c]pyridin-5-yl]urea], the IC50 worked out at 4.39 nM. On to `COC(=O)[C@@H](NC(=O)Nc1cc2cnn(-c3ccnc(C)c3)c2cn1)c1ccccc1` [Example 137, methyl (2S)-({[1-(2-methylpyridin-4-yl)-1H-pyrazolo[3,4-c]pyridin-5-yl]carbamoyl}amino)(phenyl) ethanoate], for which the IC50 was determined as 857 nM.

As to `Cc1cc(-n2ncc3cc(NC(=O)N[C@H]4CCCC[C@@H]4N)ncc32)ccn1` [Example 138, 1-[(1S,2S)-2-aminocyclohexyl]-3-[1-(2-methylpyridin-4-yl)-1H-pyrazolo[3,4-c]pyridin-5-yl]urea], the IC50 is 396 nM. As to `CC(=O)N[C@H]1CCCC[C@@H]1NC(=O)Nc1cc2cnn(-c3ccnc(C)c3)c2cn1` [Example 139, N-[(1S,2S)-2-({[1-(2-methylpyridin-4-yl)-1H-pyrazolo[3,4-c]pyridin-5-yl]carbamoyl}amino)cyclohexyl] acetamide], the IC50 worked out at 2160 nM.

Turning to `CO[C@H]1CCC[C@@H]1NC(=O)Nc1cc2cnn(-c3ccnc(C)c3)c2cn1` [Example 140, 1-[(1S,2S)-2-methoxycyclopentyl]-3-[1-(2-methylpyridin-4-yl)-1H-pyrazolo[3,4-c]pyridin-5-yl)urea], the 50% inhibitory concentration (IC50) was 72.1 nM. On to `CCNC(=O)[C@@H](NC(=O)Nc1cc2cnn(-c3ccnc(C)c3)c2cn1)c1ccccc1` [Example 141, (2S)-N-ethyl-2-({[1-(2-methylpyridin-4-yl)-1H-pyrazolo[3,4-c]pyridin-5-yl]carbamoyl}amino)-2-phenylethanamide], for which the IC50 is 2.58 nM. With `CNC(=O)[C@@H](NC(=O)Nc1cc2cnn(-c3ccnc(C)c3)c2cn1)c1ccccc1` [Example 142, (2S)-N-methyl-2-({[1-(2-methylpyridin-4-yl)-1H-pyrazolo[3,4-c]pyridin-5-yl]carbamoyl}amino)-2-phenylethanamide] the figure was 1.09 nM; with `Cc1cc(-n2ncc3cc(NC(=O)N[C@H]4CCCC[C@@H]4N(C)C)ncc32)ccn1` [Example 143, 1-[(1S,2S)-2-(dimethylamino)cyclohexyl]-3-[1-(2-methylpyridin-4-yl)-1H-pyrazolo[3,4-c]pyridin-5-yl)urea], 127 nM. Consider `CCN(CC)C(=O)[C@@H](NC(=O)Nc1cc2cnn(-c3ccnc(C)c3)c2cn1)c1ccccc1` [Example 144, (2S)-N,N-diethyl-2-({[1-(2-methylpyridin-4-yl)-1H-pyrazolo[3,4-c]pyridin-5-yl]carbamoyl}amino)-2-phenylethanamide], for which the IC50 was 89.3 nM.

In the case of `Cc1cc(-n2ncc3cc(NC(=O)N[C@H]4CN(C)C[C@@H]4CCCc4ccccc4)ncc32)ccn1` [Example 149, 1-[(3R,4S)-1-methyl-4-(3-phenylpropyl)pyrrolidin-3-yl]-3-[1-(2-methylpyridin-4-yl)-1H-pyrazolo[3,4-c]pyridin-5-yl]urea], the IC50 stood at 1.18 nM. Consider `Cc1cc(-n2ncc3cc(NC(=O)N[C@H]4CN(C)C[C@@H]4c4cc(C)on4)ncc32)ccn1` [Example 150, 1-[(3R,4S)-1-methyl-4-(5-methylisoxazol-3-yl)pyrrolidin-3-yl]-3-[1-(2-methylpyridin-4-yl)-1H-pyrazolo[3,4-c]pyridin-5-yl]urea], for which the half-inhibitory concentration (IC50) was found to be 32.6 nM. In the case of `Cc1cc(-n2ncc3cc(NC(=O)N[C@H]4CCC[C@@H]4OCc4ccccc4)ncc32)ccn1` [Example 154, 1-[(1S,2S)-2-(benzyloxy)cyclopentyl]-3-[1-(2-methylpyridin-4-yl)-1H-pyrazolo[3,4-c]pyridin-5-yl]urea], the IC50 came to 7.51 nM. In the case of `Cc1cc(-n2ncc3cc(NC(=O)N[C@H]4CN(C)C[C@@H]4c4ccc(-c5ccccc5)s4)ncc32)ccn1` [Example 155, 1-[(3R,4S)-1-methyl-4-(5-phenylthiophen-2-yl)pyrrolidin-3-yl]-3-[1-(2-methylpyridin-4-yl)-1H-pyrazolo[3,4-c]pyridin-5-yl]urea], the IC50 amounted to 591 nM.

The IC50 is the midpoint of a concentration-inhibition curve.
